Results on ten compounds are retold here after patent US6949543B2, “Amide derivative” (Yamanouchi Pharmaceutical Co., Ltd., priority 2000, dated 2005).

The subject of the experiment is VZV (strain CaQu). Kind of experiment: Anti-VZV activity assay (plaque reduction in HEF cells). Format: cell-based, varicella zoster virus. The following applies: Human alphaherpesvirus 3, 3 to 4 days culture, plaque count, read-out: EC50 (concentration to inhibit 50% of the plaques). The procedure:
This assay was carried out in accordance with the method described by Shigeta S. (The Journal of Infectious Diseases, 147, 3, 576-584 (1983). Illustratively, HEF cells were seeded a 96 well microtiter plate at 10,000 cells per well using a propagation medium and cultured at 37° C. for 4 days in an atmosphere of 5% CO2 until monolayers were formed. After washing the cells with a maintaining medium, the cells were inoculated with 100 μl/well of VZV (strain CaQu) which had been diluted to 20 to 30 pfu/100 μl with the maintaining medium. The plate was centrifuged at 2,000 rpm for 20 minutes at room temperature and then incubated at 37° C. for 3 hours in an atmosphere of 5% CO2 to infect with VZV. After washing three times with 100 μl/well of the maintaining medium, 100 μl of each test drug diluted to an appropriate concentration with the maintaining medium was added to each well. After culturing the cells at 37° C. for 3 to 4 days in an atmosphere of 5% CO2, the cells were fixed with 100 μl/well of 10% formalin/PBS for 2 to 3 hours. After discarding the fixing solution and culture supernatant and subsequently washing the plate with water, a staining solution (0.025% Crystal Violet) was added in 50 μl/well to carry out 2 to 3 minutes for staining, and then the plate was washed with water and dried at 37° C. The HEF cells infected with VZV cause cell death, and plaques comprising dead cells are formed in the monolayer HEF cells. The number of plaques was counted under a microscope, and EC50 value of the test drug was calculated as a concentration to inhibit 50% of the plaques.
As for `Nc1nc(-c2ccc(NC(=O)CN(C(=O)c3ccncc3)c3ccc4scnc4c3)cc2)cs1` [Example 108], the EC50 amounted to 0.025 µM.
Turning to `Nc1nc(-c2ccc(NC(=O)CN(C(=O)C3CC=C(F)CC3)c3ccc4scnc4c3)cc2)cs1` (stereo not shown) [Example 115], the EC50 was 0.028 µM.
For the compound `Nc1nc(-c2ccc(NC(=O)CN(C(=O)C3CCCCC3)c3ccc4ncsc4c3)cc2)cs1` [Example 114], the EC50 is 0.07 µM.
Take `Nc1nc(-c2ccc(NC(=O)CN(C(=O)C3CCOCC3)c3ccc4scnc4c3)cc2)cs1` [Example 110]: the EC50 came out at 0.049 µM.
On to `Nc1nc(-c2ccc(NC(=O)CN(C(=O)c3ccc(F)nc3)c3ccc4scnc4c3)cc2)cs1` [Example 117], for which the EC50 came to 0.065 µM.
The same measure for `Nc1nc(-c2ccc(NC(=O)CN(C(=O)c3ccncn3)c3ccc4scnc4c3)cc2)cs1` [Example 118]: 0.059 µM; for `Nc1nc(-c2ccc(NC(=O)CN(C(=O)C3CCC(F)(F)CC3)c3ccc4scnc4c3)cc2)cs1` [Example 116]: 0.033 µM.
The same measure for `Nc1nc(-c2ccc(NC(=O)CN(C(=O)C3CCSCC3)c3ccc4scnc4c3)cc2)cs1` [Example 111]: 0.026 µM; for `Nc1nc2c(ncn2COCCO)c(=O)[nH]1` [ACV, Acyclovir, reference compound]: 4.3 µM; for `Nc1nc(-c2ccc(NC(=O)CN(C(=O)C3CCSc4ccccc43)c3ccc4scnc4c3)cc2)cs1` (stereo not shown) [Example 113]: 0.04 µM.
